Experimental data taken from PubChem BioAssay (NCI).
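Briefly, cells in 96-well plates were exposed to five compound concentrations for 48 h, and endpoints were estimated by linear interpolation. GI50 is the concentration that inhibits growth by half. The concentration for full growth arrest is given as TGI.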

Legend:
Assay in all cases: NCI anticancer screen, dose series, 48 h
CAKI-1 renal = tested on: CAKI-1 renal
IGROV1 ovarian = tested on: IGROV1 ovarian
HS 578T breast = tested on: HS 578T breast
TK-10 renal = tested on: TK-10 renal
HCT-116 colon = tested on: HCT-116 colon
HCC-2998 colon = tested on: HCC-2998 colon
786-0 renal = tested on: 786-0 renal
MOLT-4 leukemia = tested on: MOLT-4 leukemia

Structure (SMILES) | TGI (CAKI-1 renal) [µM] | TGI (IGROV1 ovarian) [µM] | TGI (HS 578T breast) [µM] | TGI (TK-10 renal) [µM] | TGI (HCT-116 colon) [µM] | TGI (HCC-2998 colon) [µM] | TGI (786-0 renal) [µM] | TGI (MOLT-4 leukemia) [µM] | GI50 (CAKI-1 renal) [µM] | GI50 (IGROV1 ovarian) [µM] | GI50 (HS 578T breast) [µM] | GI50 (TK-10 renal) [µM] | GI50 (HCC-2998 colon) [µM] | GI50 (786-0 renal) [µM] | GI50 (MOLT-4 leukemia) [µM] | GI50 (HCT-116 colon) [µM]
Cc1cc(=O)oc2cc(OC(=O)Nc3ccc(Cl)c(Cl)c3)ccc12 | 86.4 | 60.5 | 66.4 | > 100 | 40.7 | 41 | > 100 | 44.4 |  |  |  |  |  |  |  | 
COC(=O)[C@]12CC[C@@H](C)[C@H](C)[C@@H]1C1=CC[C@@H]3[C@@]4(C)C(C=O)=C[C@@](C)(COC(C)=O)[C@@H]4[C@H](O)C[C@@]3(C)[C@]1(C)CC2 | 12.3 | 9.7 | 9.43 | 8.77 |  | 3.6 | 4.26 | 5.02 | 2.72 | 2.95 | 2.67 | 2.73 | 1.83 | 1.89 | 1.34 | 
O=S(=O)(NC(=S)Nc1ccccc1)c1ccc(N2N=C3c4ccccc4CC3C2c2cccs2)cc1 (stereo not drawn) | 43.8 | > 100 | 68 | 39.7 | 34.8 | 30.8 | 40.4 | > 100 | 18.5 | 65.3 | 20.9 | 12.2 | 13.9 | 19.7 | 17.5 | 15.1
C=C1C(=O)O[C@H]2[C@H]1CC/C(COC(=O)C(=O)c1c[nH]c3ccc(OC)cc13)=C\CC[C@@]1(C)O[C@@H]21 | 23.3 | 7.64 | 40.2 | 14.5 | 8.73 | 9.82 | 9.91 | 16 | 9.23 | 3.22 | 10.1 | 6.41 | 6.29 | 5.37 | 5.31 | 4.48
CN1CCN(c2ccc(-c3cnc4c(-c5csc6ccccc56)cnn4c3)cc2)CC1 | > 15 | > 15 | > 15 | > 15 | > 15 | > 15 | 12.3 | > 15 | 11.3 | 7.55 | 10.9 | 8.37 | 6 | 4.35 | 4.1 | 3.15
C=C(CNCCc1ccc(O)cc1)[C@@H]1CC[C@]2(CO)CC[C@]3(C)[C@H](CC[C@@H]4[C@@]5(C)CCC(=O)C(C)(C)[C@@H]5CC[C@]43C)[C@@H]12 | 2.96 | 3.3 |  | 3.19 | 3.03 | 3.06 | 2.95 | 4.47 | 1.57 | 1.68 |  | 1.73 | 1.64 | 1.6 | 1.96 | 1.67
O=C(O)CCC1COc2ccccc2O1 (stereo not drawn) | > 10 | > 10 | > 10 | > 10 | > 10 | > 10 | > 10 | > 10 |  |  |  |  |  |  |  | 
COc1cc2c3c(n(CCCN)c(=O)c2cc1OC)-c1ccc(F)cc1C3=O | 15.6 | 7.68 | 13.6 | 30.4 | 2.46 | 12.6 | 2.7 | 4.13 | 1.69 | 1.82 | 6.49 | 14.7 | 2.67 | 1.34 | 0.385 | 1.19
